Data reported in PMC8263253, “Agonist and antagonist properties of an insect GABA-gated chloride channel (RDL) are influenced by heterologous expression conditions” (PLoS ONE, 2021).
“And” between values parts separate entries of the source, which are not always exact repeats. Equal values may be shown once.

Biological target: BtRDL (Bombus terrestris RDL GABA-gated chloride channel) (Bombus terrestris audax, UniProt A0A8F2J2P3)
Test: Two-electrode voltage-clamp recording of BtRDL expressed in Xenopus oocytes
Format: cell-based
Settings: for IC50: IC50 for block of GABA responses
Description: For convenience, these amounts of cRNA are referred to subsequently as 1 ng and 10 ng.
Xenopus were anaesthetised by immersion in 0.2% MS222 for 15 minutes (or until complete anaesthesia was confirmed by absence of leg-withdrawal and righting reflex), followed by cranial concussion, decapitation and pithing. Xenopus oocytes were isolated, maintained and injected with cRNA, as described previously [24]. […] Application of compounds was controlled by LabChart software (AD Instruments) using a BPS-8 solenoid valve solution exchange system (ALA Scientific Inc). Typically, agonists were applied for 5 s or until a plateau in the response was observed. Antagonists were pre-applied for 30 s and then co-applied with agonist for 5s or until a plateau in the response. was observed.

Sequence of BtRDL (Bombus terrestris RDL GABA-gated chloride channel) (A0A8F2J2P3 entry or part of it): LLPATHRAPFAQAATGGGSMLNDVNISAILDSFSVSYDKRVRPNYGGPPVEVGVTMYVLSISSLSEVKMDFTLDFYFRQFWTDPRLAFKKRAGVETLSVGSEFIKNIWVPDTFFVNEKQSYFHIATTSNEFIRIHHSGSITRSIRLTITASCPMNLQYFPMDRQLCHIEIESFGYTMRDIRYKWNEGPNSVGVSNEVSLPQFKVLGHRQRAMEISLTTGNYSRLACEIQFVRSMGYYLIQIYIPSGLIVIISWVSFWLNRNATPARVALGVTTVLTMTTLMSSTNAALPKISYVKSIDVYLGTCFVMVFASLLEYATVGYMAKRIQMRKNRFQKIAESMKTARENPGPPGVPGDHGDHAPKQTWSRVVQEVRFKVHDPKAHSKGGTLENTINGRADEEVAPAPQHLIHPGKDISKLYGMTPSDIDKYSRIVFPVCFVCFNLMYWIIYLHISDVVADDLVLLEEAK

## C=C(C)[C@@H]1[C@H]2OC(=O)[C@@H]1[C@]1(O)C[C@H]3O[C@]34C(=O)O[C@H]2[C@]14C [picrotoxinin]
BtRDL with high apparent affinity for GABA (10 ng cRNA, pGEMHE NheI, three-days), EC50 concentration of GABA 1 μM
  IC50: 14 ± 1.6 µM
BtRDL with low apparent affinity for GABA (1 ng cRNA, pGEMHE XbaI, three-days), EC50 concentration of GABA 30 μM
  IC50: 1.7 ± 0.3 µM

## NCCCC(=O)O [GABA, γ-aminobutyric acid]
1 ng BtRDL cRNA lacking 3'UTR, 1–3 days post-injection
  maximum current (Imax) to GABA: 0.67 ± 0.04 μA
BtRDL 1 ng cRNA (+3'UTR) co-expressed with DmNACHO
  maximum current (Imax) to GABA: 3.4 ± 0.6 μA
GABA EC50, pGEMHE-BtRDL digested with NheI (3'UTR retained), 1 ng cRNA, three-days post-injection
  EC50: 4 ± 1.1 µM
GABA EC50, pGEMHE-BtRDL digested with XbaI (3'UTR removed), 1 ng cRNA, three-days post-injection
  EC50: 27.6 ± 1.6 µM
GABA EC50, pSP64GL-BtRDL cRNA containing 3'UTR, 1 ng, BtRDL expressed alone, three-days post-injection
  EC50: 3.7 ± 0.4 µM
GABA EC50, pSP64GL-BtRDL cRNA lacking 3'UTR, 1 ng, three-days post-injection
  EC50: 31.4 ± 2.1 µM
GABA apparent affinity EC50, BtRDL 1 ng cRNA (+3'UTR) + 10 ng cRNA CeRIC-3, Day 1
  EC50: 10.6 ± 1.1 µM
GABA apparent affinity EC50, BtRDL 1 ng cRNA (+3'UTR) + 10 ng cRNA CeRIC-3, Day 2
  EC50: 5 ± 0.9 µM
GABA apparent affinity EC50, BtRDL 1 ng cRNA (+3'UTR) + 10 ng cRNA CeRIC-3, Day 3
  EC50: 4.2 ± 1 µM
GABA apparent affinity EC50, BtRDL 1 ng cRNA (+3'UTR) + 10 ng cRNA DmNACHO, Day 1
  EC50: 21 ± 1.1 µM
GABA apparent affinity EC50, BtRDL 1 ng cRNA (+3'UTR) + 10 ng cRNA DmNACHO, Day 2
  EC50: 14.8 ± 1.1 µM
GABA apparent affinity EC50, BtRDL (+3'UTR), 1 ng cRNA, Day 2 post-injection
  EC50: 4.4 ± 0.7 µM
GABA apparent affinity EC50, BtRDL (+3'UTR), 1 ng cRNA, Day 3 post-injection
  EC50: 3.9 ± 0.6 µM
GABA apparent affinity EC50, BtRDL (+3'UTR), 10 ng cRNA, Day 1 post-injection
  EC50: 10.8 ± 1.2 µM
GABA apparent affinity EC50, BtRDL (+3'UTR), 10 ng cRNA, Day 2 post-injection
  EC50: 2 ± 0.7 µM
GABA apparent affinity EC50, BtRDL (+3'UTR), 10 ng cRNA, Day 3 post-injection
  EC50: 1.8 ± 0.4 µM
GABA apparent affinity EC50, BtRDL (-3'UTR), 1 ng cRNA, Day 1 post-injection
  EC50: 29.7 ± 1.1 µM
GABA apparent affinity EC50, BtRDL (-3'UTR), 1 ng cRNA, Day 2 post-injection
  EC50: 28.3 ± 1.1 µM
GABA apparent affinity EC50, BtRDL (-3'UTR), 1 ng cRNA, Day 3 post-injection
  EC50: 29.4 ± 1 µM
GABA apparent affinity EC50, BtRDL (-3'UTR), 10 ng cRNA, Day 1 post-injection
  EC50: 27.3 ± 1.1 µM
GABA apparent affinity EC50, BtRDL (-3'UTR), 10 ng cRNA, Day 2 post-injection
  EC50: 10.8 ± 1 µM
GABA apparent affinity EC50, BtRDL (-3'UTR), 10 ng cRNA, Day 3 post-injection
  EC50: 12.5 ± 1 µM
GABA apparent affinity EC50, BtRDL alone, 1 ng cRNA (+3'UTR), Day 2
  EC50: 4.6 ± 0.9 µM
Apparent affinity for GABA, BtRDL populations with intermediate apparent affinities (summary in discussion)
  EC50: ~4 µM and ~12 µM
Apparent affinity for GABA, BtRDL receptors with high apparent affinity (summary in discussion)
  EC50: ~30 µM
Apparent affinity for GABA, BtRDL receptors with low apparent affinity (summary in discussion)
  EC50: ~2 µM

## CC(C)c1cccc(C(C)C)c1O [Propofol, propofol]
Propofol apparent affinity (agonist activation), BtRDL with high apparent affinity for GABA (10 ng cRNA +3'UTR, three-days)
  EC50: 82.9 ± 6.4 µM
Propofol apparent affinity (agonist activation), BtRDL with low apparent affinity for GABA (1 ng cRNA +3'UTR, one-day)
  EC50: 198 ± 19.1 µM
